# Patent US7544814B2, “[3.2.0] Heterocyclic compounds and methods of using the same” (Nereus Pharmaceuticals, Inc., priority 2004, dated 2009)
# “And” between values parts separate entries of the source, which are not always exact repeats. Equal entries are not always repeated. Where two headings read alike, the source gives them in different places.
# Key:
# [1] = Stability in solution; assay type: physicochemical; conditions: converted to VI-1B; mixture of II-48 and VI-1B in the ratio of 7:3
# Experimental: The reaction mixture was stirred at room temperature for about 3 hours. The solvent was evaporated from the reaction mixture to yield the compound of Formula II-48, which was purified by reversed phase HPLC using Ace 5u C18 column (150 mm×22 mm ID) with a solvent gradient of 10% to 70% H2O/Acetonitrile over 15 min, 70 to 100% Acetonitrile over 5 min, holding at 100% Acetonitrile for 4 min, at a flow rate of 14.5 ml/min. Diode array detector was used to monitor the purification process. Compound II-48 (10 mg) eluted as a pure compound at 8.255 min. […] Compound VI-1B: UV (Acetonitrile/H2O) λmax 235 (sh) nm; ESMS, m/z 585.2 (M+H)^−.
# [2] = system: B16-F10; test: Cell growth inhibition (resazurin), B16-F10; conditions: from EC50 values
# [3] = molecular target: T1, trypsin-like activity of purified rabbit muscle 20S proteasome (Oryctolagus cuniculus, UniProt G1SWK8); test: biochemical
# T1 sequence (G1SWK8 1-271): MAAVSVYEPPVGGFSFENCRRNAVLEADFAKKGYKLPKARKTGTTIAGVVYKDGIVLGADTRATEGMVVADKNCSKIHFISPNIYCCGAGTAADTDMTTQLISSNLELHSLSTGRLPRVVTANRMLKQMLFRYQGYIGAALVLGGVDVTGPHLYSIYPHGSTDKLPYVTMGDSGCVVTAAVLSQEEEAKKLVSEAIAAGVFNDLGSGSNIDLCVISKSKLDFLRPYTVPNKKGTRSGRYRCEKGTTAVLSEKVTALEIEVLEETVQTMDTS
# [4] = molecular target: T2, caspase-like activity of purified rabbit muscle 20S proteasome (Oryctolagus cuniculus, UniProt A0A5F9DQW2); test: In vitro inhibition of 20S proteasome caspase-like activity (Z-LLE-AMC)
# T2 sequence (A0A5F9DQW2 1-212): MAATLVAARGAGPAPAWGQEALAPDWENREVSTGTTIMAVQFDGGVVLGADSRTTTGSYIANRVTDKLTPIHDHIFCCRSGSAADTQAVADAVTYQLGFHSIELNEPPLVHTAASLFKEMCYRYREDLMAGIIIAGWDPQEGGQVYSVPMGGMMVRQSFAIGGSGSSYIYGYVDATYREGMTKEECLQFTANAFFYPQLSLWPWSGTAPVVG
# [5] = system: RPMI 8226; test: Cell growth inhibition (resazurin), RPMI 8226; conditions: for EC50: 48 hours drug exposure
# [6] = system: MDA-MB-231; test: Cell growth inhibition (resazurin), MDA-MB-231; conditions: from EC50 values
# [7] = system: PC-3; test: Cell growth inhibition (resazurin), PC-3; assay type: cell-based, human; conditions: from EC50 values
# [8] = system: LeTx-mediated cytotoxicity of RAW 264.7 cells; conditions: read-out: EC50 for inhibition of RAW 264.7 cell cytotoxicity mediated by anthrax lethal toxin; 45 minute preincubation, 1 μg/ml LF and PA, six hours; maximum concentration 330 nM
# [9] = system: NCI-H292; test: Cell growth inhibition (resazurin), NCI-H292; conditions: from EC50 values
# [10] = system: NF-κB; test: NF-κB-mediated luciferase reporter gene assay, HEK293 NF-κB/Luc cells, TNF-α stimulation; assay type: cell-based, human
# Procedure, shortened: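 Cells seeded at 1.5×10^4/well in phenol-red free DMEM, pretreated 1 h with 8-point half-log compound dilutions (DMSO stocks), then stimulated with TNF-α (10 μl of 50 ng/ml solution) for 6 h. Luciferase read as RLU after 10 min with Steady Lite reagent at room temperature.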
# [11] = system: OVCAR-3; test: Cell growth inhibition (resazurin), OVCAR-3
# [12] = molecular target: T3, chymotrypsin-like activity of purified rabbit muscle 20S proteasome (Oryctolagus cuniculus, UniProt G1T4Q9); test: In vitro inhibition of 20S proteasome chymotrypsin-like activity (suc-LLVY-AMC); conditions: EC50 Chymotrypsin-like, Table 6, values in nM
# T3 sequence (G1T4Q9 1-263): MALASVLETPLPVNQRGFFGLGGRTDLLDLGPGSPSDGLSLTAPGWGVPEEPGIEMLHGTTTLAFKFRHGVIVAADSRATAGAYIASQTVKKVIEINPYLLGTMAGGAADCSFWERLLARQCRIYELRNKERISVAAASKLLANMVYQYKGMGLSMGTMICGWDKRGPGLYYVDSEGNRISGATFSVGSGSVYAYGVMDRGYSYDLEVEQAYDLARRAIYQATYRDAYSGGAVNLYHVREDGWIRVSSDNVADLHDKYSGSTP
# [13] = system: HT-29; test: Cell growth inhibition (resazurin), HT-29; conditions: from EC50 values
# [14] = molecular target: T1, trypsin-like activity of purified rabbit muscle 20S proteasome; test: In vitro inhibition of 20S proteasome trypsin-like activity (Boc-LRR-AMC); conditions: under the conditions tested
# [15] = system: U266; test: Cell growth inhibition (resazurin), U266; conditions: for EC50: 48 hours drug exposure
structure (smiles),measurement,setting,value
C[C@]1(O)[C@@H](CCCl)C(=O)N[C@]1(C(=O)SCC(NC(=O)CCC(N)C(=O)O)C(=O)NCC(=O)O)[C@@H](O)[C@@H]1C=CCCC1 (stereo partly shown) [Formula II-48],stability in solution,[1],unstable in solution
"C[C@@]12OC(=O)[C@]1([C@@H](O)[C@H]1CCCC3OC31)NC(=O)[C@@H]2CCCl (single isomer, unassigned) [Formula II-5A]","cytotoxicity against B16-F10, in words",[2],cytotoxic
same,EC50,[3],90 nM
same,EC50,"[4]; EC50 Caspase-like, Table 6, values in nM",535 nM and 438 nM
same,EC50,"[4]; EC50 values, caspase-like activity, summary of Table 6",213 to 850 nM
same,"cytotoxicity against RPMI 8226, in words",[5]; from EC50 values,cytotoxic
same,EC50,"[5]; read-out: EC50 against RPMI 8226, Table 1",29 nM
same,EC50,"[5]; read-out: RPMI 8226 EC50, Table 2, mean ± SD where n≥3",36 nM and 29 nM
same,"cytotoxicity against MDA-MB-231, in words",[6],cytotoxic
same,"cytotoxicity against PC-3, in words",[7],cytotoxic
same,EC50,[8],3 nM
same,"cytotoxicity against NCI-H292, in words",[9],cytotoxic
same,"effect on luciferase activity upon TNF-α stimulation, in words",[10]; pretreatment of NF-κB/Luc 293 cells,dose-dependent decrease
same,EC50,"[10]; read-out: EC50, NF-κB-mediated luciferase reporter gene assay, Table 5, values in nM, 1 hr pretreatment, TNF-α 6 hr",33 nM
same,"cytotoxicity against OVCAR-3, in words",[11]; from EC50 values,cytotoxic
same,EC50,"[11]; read-out: EC50 against OVCAR-3, Table 1, 48 hours drug exposure",64 nM
same,EC50,[12],6 nM and 7 nM
same,"cytotoxicity against HT-29, in words",[13],cytotoxic
same,"inhibition of the trypsin-like activity of the 20S proteasome, in words",[14],able to inhibit
same,"cytotoxicity against U266, in words",[15]; from EC50 values,cytotoxic
same,EC50,"[15]; read-out: EC50 against U266, Table 1",9 nM
same,EC50,"[15]; read-out: U266 EC50, Table 2",10 nM and 9 nM
